Reference: paper PMC6827013, “Alpha-Glucosidase and Alpha-Amylase Inhibitory Activities of Novel Abietane Diterpenes from Salvia africana-lutea” (Antioxidants, 2019)
Where two headings read alike, the source gives them in different places.

What was measured:
[1] = Trolox equivalent absorbance capacity (TEAC) assay
Protocol: The total anti-oxidant activity of the test sample was measured using previously described methods. Absorbance was read at 734 nm at 25 °C in a plate reader, and the results were expressed as μmole Trolox equivalents per […] of dry weight (μM TE/g DW) of the test samples.
(§1) The in vitro antioxidant activity of the isolated compounds of the methanolic extract of S. africana-lutea were investigated by evaluating their ferric-ion reducing antioxidant power (FRAP), trolox equivalent absorbance capacity (TEAC), and oxygen radical absorbance capacity (ORAC) activities. […] Phenolic compounds have been reported to be responsible for the antioxidant activity of numerous plant species by stabilization of radicals by donating electrons or by metal ion complexation, among other mechanisms. Nevertheless, other aspects can be considered, for example, the presence of vicinal hydroxyl groups is essential in a pronounced antioxidant activity. Abietane diterpenes are known for having strong antioxidant activity due to the presence of ortho-dihydroxyl groups/vicinal hydroxyls in the aromatic ring that serve as hydrogen and/or electron donating agents to the corresponding reactive species leading to the formation of the stable quinone derivatives. It has been shown that the phenolic group at the 11 position would be more implicated in the antioxidant activity. In general, phenolic compounds are expected to transfer electrons or donate protons to the reactive radicals because of the resonance stability of the phenoxy radical.

[2] = Ferric-ion reducing antioxidant power (FRAP) assay; conditions: ascorbic acid equivalents; mean ± SEM, n = 3
Protocol: The FRAP assay was carried out in accordance with the method described previously. […] L-Ascorbic acid was used as a standard, and the results were expressed as µmole ascorbic acid equivalents per […] of dry weight (μM AAE/g DW) of the test samples.
The in vitro antioxidant activity of the isolated compounds of the methanolic extract of S. africana-lutea were investigated by evaluating their ferric-ion reducing antioxidant power (FRAP), trolox equivalent absorbance capacity (TEAC), and oxygen radical absorbance capacity (ORAC) activities. […] Nevertheless, other aspects can be considered, for example, the presence of vicinal hydroxyl groups is essential in a pronounced antioxidant activity. […] It has been shown that the phenolic group at the 11 position would be more implicated in the antioxidant activity. In general, phenolic compounds are expected to transfer electrons or donate protons to the reactive radicals because of the resonance stability of the phenoxy radical.

[3] = Oxygen radical absorbance capacity (ORAC) assay
Excerpt: ORAC assay was done according to the previous method. ORAC values were expressed as micromoles of trolox equivalents (TE) per milligram of the test sample. Samples without a perfect curve were further diluted, and the dilution factors were used in the calculations of such samples.
as §1

[4] = target: α-glucosidase (Saccharomyces cerevisiae); test: Alpha-glucosidase inhibitory activity (p-NPG substrate, absorbance 405 nm); format: biochemical; conditions: mean ± SEM, n = 3; NA = not active at the test concentrations
Protocol: Alpha-glucosidase inhibitory activity of the isolated compounds was carried out according to the standard method, with a slight modification. […] Next, 20 μL of p-NPG (5 mM) was added as a substrate and incubated further at 37 °C for 20 min. The reaction was stopped by adding 50 μL of sodium carbonate Na2CO3 (0.1 M). […] Each experiment was performed in triplicates. […] Inhibitory activity (%) = (1 − A/B) ×100(1) where A is the absorbance in the presence of the test substance and B is the absorbance of the control.

[5] = target: T1, α-amylase (procaine pancreas) (Sus scrofa, UniProt P00690); test: Alpha-amylase inhibitory activity (starch substrate, DNS, absorbance 540 nm); format: biochemical; conditions: mean ± SEM, n = 3; NA = not active at the test concentrations
T1 construct: α-amylase (procaine pancreas); purchased Sigma-Aldrich, Cape town, South Africa; host or cells: pancreas
T1 sequence (P00690 16-511): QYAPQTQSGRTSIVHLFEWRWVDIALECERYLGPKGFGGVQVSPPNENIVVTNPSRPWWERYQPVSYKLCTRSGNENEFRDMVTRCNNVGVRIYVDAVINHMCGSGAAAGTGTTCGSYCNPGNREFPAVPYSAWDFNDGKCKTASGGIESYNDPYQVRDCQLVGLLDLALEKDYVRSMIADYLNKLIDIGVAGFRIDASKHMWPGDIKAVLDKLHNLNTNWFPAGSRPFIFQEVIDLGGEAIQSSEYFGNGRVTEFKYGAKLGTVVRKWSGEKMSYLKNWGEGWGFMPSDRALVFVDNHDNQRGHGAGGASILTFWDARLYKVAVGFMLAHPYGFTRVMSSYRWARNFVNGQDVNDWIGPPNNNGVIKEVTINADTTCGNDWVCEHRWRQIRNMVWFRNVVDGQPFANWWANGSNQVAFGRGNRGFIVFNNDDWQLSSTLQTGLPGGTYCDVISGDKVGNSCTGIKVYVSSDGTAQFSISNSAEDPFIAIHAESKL
Protocol: The alpha-amylase inhibitory activity of the extract and fractions was carried out according to the standard method, with a slight modification [24]. In a 96-well plate, the reaction mixture containing 50 μL of phosphate buffer (100 mM, pH = 6.8), 10 μL alpha amylase (2 U/mL), and 20 μL of varying concentrations of isolated compounds was pre-incubated at 37 °C for 20 min. Next, 20 μL of 1% soluble starch (100 mM phosphate buffer pH 6.8) was added as a substrate and incubated further at 37 °C for 30 min. A volume of 100 μL of the color reagent (DNS) was added and then boiled for 10 min. The absorbance of the resulting mixture was measured at 540 nm using a Multiplate Reader (Multiskan thermo scientific, version 1.00.40). […] Each experiment was performed in triplicates. The results were expressed as the percentage inhibition, which was calculated using Formula (2). Inhibitory activity (%) = (1 − A/B) ×100(2) where A is the absorbance in the presence of the test substance and B is the absorbance of the control.

[6] = Trolox equivalents, mean ± SEM, n = 3, NA = not active at the test concentrations

| Alpha-Glucosidase IC50 [4] | IC50 [5] | Compound | TEAC [1, 6] | FRAP [2] | ORAC [3] | ORAC [3, 6] | TEAC [1] |
| --- | --- | --- | --- | --- | --- | --- | --- |
| – | – | COc1c(C(C)C)cc2c(c1O)[C@@]1(C(=O)O)CCC[C@](C)(COC(C)=O)C1CC2 (stereo partly shown) [Compound 1, 19-acetoxy-12-methoxycarnosic acid] | 694.0 ±1.6 µmole TE/g | 1217.4 ± 2.9 µM AAE/g | 2588.2 ± 10.1 µM TE/g | 2588.2 ± 10.1 µmole TE/g | – |
| – | – | COC1c2cc(C(C)C)c(O)c(O)c2C23CCC(OC(C)=O)C(C)(C)C2C1OC3=O (stereo not drawn) [Compound 2, 3β-acetoxy-7α-methoxyrosmanol] | 635.7 ± 0.8 µmole TE/g | 2200.9 ± 14.2 µM AAE/g | – | 2233.9 ± 8.0 µmole TE/g | – |
| – | – | COC1c2cc(C(C)C)c(O)c(O)c2C23CCCC(C)(COC(C)=O)C2C1OC3=O (stereo not drawn) [Compound 3, 19-acetoxy-7α-methoxyrosmanol] | 124.4 ± 0.6 µmole TE/g | 1440.4 ± 9.1 µM AAE/g | – | 735.4 ± 2.0 µmole TE/g | – |
| – | – | COc1c(C(C)C)cc2c(c1O)C13CCCC(C)(COC(C)=O)C1CC2OC3=O (stereo not shown) [Compound 4, 19-acetoxy-12-methoxy carnosol] | 440.1 ± 1.5 µmole TE/g | 1257.0 ± 6.7 µM AAE/g | – | 559.7 ± 15.2 µmole TE/g | – |
| – | – | CC(C)c1cc2c(c(O)c1O)[C@]13CCC[C@](C)(C(O)OC1=O)C3CC2 (stereo partly shown) [Compound 5, clinopodiolide A] | 862.2 ± 1.4 µmole TE/g | 2262.9 ± 11.0 µM AAE/g | – | 2357.2 ± 0.1 µmole TE/g | 862.2 ± 1.4 µM TE/g |
| 81.7 ± 2.1 µg/mL | – | COc1c(C(C)C)cc2c(c1O)[C@]13CCC[C@](C)(C(O)OC1=O)C3CC2 (stereo partly shown) [Compound 6, clinopodiolide B] | 724.9 ± 1.3 µmole TE/g | 1480.0 ± 3.9 µM AAE/g | – | 1502.5 ± 21.2 µmole TE/g | 705.5 ± 2.0 µM TE/g |
| – | – | CC1(C)CC[C@]2(C(=O)O)CC[C@]3(C)C(=CC[C@@H]4[C@@]5(C)CC[C@H](O)C(C)(C)[C@@H]5CC[C@]43C)[C@@H]2C1 [Compound 7, oleanolic acid] | – | 347.8 ± 3.7 µM AAE/g | – | – | – |
| 85.8 ± 2.3 µg/mL | – | CC1CCC23CCC4(C)C5(C)CCC6C(C)(C)C(O)CCC6(C)C5C=CC4(OC2=O)C3C1C (stereo not shown) [Compound 9, 11,12-dehydroursolic acid lactone] | – | 283.4 ± 3.9 µM AAE/g | – | – | – |
| 17.1 ± 1.0 µg/mL | 180 µM | CC1(C)CC[C@]2(C)CC[C@]3(C)C(=CC[C@@H]4[C@@]5(C)CC[C@H](O)C(C)(C)[C@@H]5CC[C@]43C)[C@@H]2C1 [Compound 10, β-amyrin] | – | 412.2 ± 13.0 µM AAE/g | – | – | – |
| – | – | O=C(O[C@@H]1Cc2c(O)cc(O)cc2O[C@@H]1c1cc(O)c(O)c(O)c1)c1cc(O)c(O)c(O)c1 [EGCG, Epigallocatechingallate, reference compound] | 4146.4 ± 19.8 µmole TE/g | 7525.0 ± 4.9 µM AAE/g | – | 3976.8 ± 3.8 µmole TE/g | – |
